What follows are molecules tested on HIV-1LAI (assay: Anti-HIV-1 activity in human PBM cells). Conditions: Human immunodeficiency virus 1, PBMC; read-out: EC50 against human immunodeficiency virus type 1.
Format: cell-based
Description: Anti-HIV-1 activity of the compounds was determined in human peripheral blood mononuclear (PBM) cells as described previously (Schinazi R. F., McMillan A., Cannon D., Mathis R., Lloyd R. M. Jr., Peck A., Sommadossi J.-P., St. Clair M., Wilson J., Furman P. A., Painter G., Choi W.-B., Liotta D. C. Antimicrob. Agents Chemother. 1992, 36, 2423; Schinazi, R. F., Sommadossi J.-P., Saalmann V., Cannon D., Xie M.-Y., Hart G., Smith G., Hahn E. Antimicrob. Agents Chemother. 1990, 34, 1061). Stock solutions (20-40 mM) of the compounds were prepared in sterile DMSO and then diluted to the desired concentration in growth medium. Cells were infected with the prototype HIV-1LAI at a multiplicity of infection of 0.01. Virus obtained from the cell supernatant was quantified on day 6 after infection by a reverse transcriptase assay using (rA)n.(dT)12-18 as template-primer. The DMSO present in the diluted solution (<0.1%) had no effect on the virus yield. AZT was included as positive control. The toxicity of some compounds was assessed in Vero, human PBM, and CEM cells, as described previously (Schinazi R. F., Sommadossi J.-P., Saalmann V., Cannon D. L., Xie M.-Y., Hart G. C., Smith G. A., Hahn E. F. Antimicrob Agents Chemother. 1990, 34, 1061-1067). Cycloheximide was included as positive cytotoxic control, and untreated cells exposed to solvent were included as negative controls. […]

| SMILES | EC50 |
| --- | --- |
| C#Cc1cn([C@H]2CC(O)[C@@H](CO)O2)c(=O)[nH]c1=O (stereo partly drawn) [5-ethynyl-dU, β-D-2′-deoxy-5-ethynyluridine] | 610 nM |

The molecules below were run against T1, EBV-TK (Epstein-Barr virus, UniProt P03177) (assay: Selectivity for EBV-TK: thymidine phosphorylation competition and cytotoxicity assays on EBV-TK-expressing cells). Conditions: EBV-TK versus human cellular thymidine kinase.
T1 construct: expressed in transfected cells; host or cells: 143B TK- human osteosarcoma cells and 293 human embryonic kidney cells, stably transfected with pCMV EBV-TK
Format: cell-based
Description: J. Virol. 74, 684-692). EBV-TK was incubated in an optimized buffer with 15 μM 3H-dT as substrate in a final volume of 100 μL. The enzyme source was either lysate from 143B EBV-TK-expressing cells or purified GST EBV-TK from E. coli. The amount of enzyme was adjusted so that the reaction proceeded linearly for over 60 min. A 10-fold excess (150 μM) of the nucleoside analog being tested was included in the experiment. The reaction was halted at 30 min. by spotting 50 μL of the reaction onto positively charged DE-81 discs (Whatman). After washing four times with 5 mM ammonium formate and once with 95% ethanol, the discs were dried and counted in a scintillation counter. The CPM of the positive control reaction containing no nucleoside analog was taken as 100% activity.
This assay measures the ability of a candidate nucleoside to specifically eliminate EBV-infected cells in the continuous presence of drug. 143B TK-cells lack TK-1. 293 cells contain human TK-1. Therefore, these assays comparatively assess the effects of human TK expression on toxicity. Stock solutions (20-40 mM) of the compounds were prepared in sterile DMSO and then diluted to the desired concentration in growth medium. The cells (143B TK-, 293 EBV-TK or 293 Neo control cells) were cultured in the presence of drug for 5 days, and the media was replaced with fresh media containing drug on day three. Cells were then washed one time with PBS, fixed with 4% formaldehyde/1% methanol and stained with 1% crystal violet in 20% ethanol for visualization of the cell monolayer. […] Cultures with this designation often have media that is still “pink,” indicating a slowdown of cellular metabolism. Identical samples are assessed in triplicate.
Stock solutions (20-40 mM) of the compounds were prepared in sterile DMSO and then diluted to the desired concentration in growth medium. Exponentially growing cells were incubated with the nucleoside in question for 24 h, plated in 24-well plates at 50 viable cells per well and incubated for 7-9 days in the absence of drug. Cells were fixed and stained as above and colonies were counted. A nucleoside can cause a decrease in the number of colonies, which is an indirect indication of the number of cells able to survive and to replicate after the initial exposure to drug.
Two cell systems are employed to determine the toxicity of each nucleoside. The information obtained depends upon the system used. In 143B TK-cells, cytotoxic drugs that are dependent upon phosphorylation by a TK are easily identified. 143B TK-cells expressing either EBV-TK or hTK1 permit assessment of whether either enzyme independently may cause a drug to become cytotoxic. Thus, drugs that can be activated by hTK1, which would cause non-specific cytotoxicity, are readily identified. One drawback is that these cells are grown in HAT media that “forces” nucleosides through the TK salvage pathway (EBV-TK or hTK1). A false positive may arise if a nucleoside out-competes dT for phosphorylation such that sufficient amounts of dT are not available for cellular replication. This toxicity may not be present or may be reduced in a cell that has the synthetic as well as salvage pathways available for dTTP production. For this reason, the 293 system was developed. These cells have endogenous hTK1 and EBV-TK is maintained by selection in G418. Thus, the normal hTK1 salvage pathway is operational, and nucleosides can be expected to flux through the cells normally. Drugs are incubated with 293 cells transformed with a neomycin (Neo) expressing plasmid (Neo control) and with cells transfected with the same plasmid also expressing EBV-TK. A nucleoside selectively activated by EBV-TK should cause toxicity on 293 EBV-TK and not on 293 Neo control cells. In both the 143B and 293 cell systems, toxicity is evaluated by cell survival. The cells are cultured in the presence of drug for 5 days, and the media replaced with fresh media containing drug on day 3. […]

T1 sequence (P03177 whole entry): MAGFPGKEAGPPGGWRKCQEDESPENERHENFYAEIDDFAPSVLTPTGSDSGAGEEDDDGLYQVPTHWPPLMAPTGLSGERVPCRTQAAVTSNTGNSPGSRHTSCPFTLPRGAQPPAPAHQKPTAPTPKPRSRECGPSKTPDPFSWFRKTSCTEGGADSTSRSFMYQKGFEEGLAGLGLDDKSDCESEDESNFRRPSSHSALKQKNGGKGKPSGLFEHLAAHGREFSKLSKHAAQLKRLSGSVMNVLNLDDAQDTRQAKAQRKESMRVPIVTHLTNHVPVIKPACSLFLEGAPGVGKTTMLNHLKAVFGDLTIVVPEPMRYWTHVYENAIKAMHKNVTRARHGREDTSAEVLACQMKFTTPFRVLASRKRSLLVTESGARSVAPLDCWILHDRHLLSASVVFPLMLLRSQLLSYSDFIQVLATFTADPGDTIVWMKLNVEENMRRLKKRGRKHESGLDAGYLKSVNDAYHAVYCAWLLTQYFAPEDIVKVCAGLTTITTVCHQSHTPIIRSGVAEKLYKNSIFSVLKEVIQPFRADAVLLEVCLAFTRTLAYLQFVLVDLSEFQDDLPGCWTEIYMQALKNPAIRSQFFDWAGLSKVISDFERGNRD

| SMILES | selectivity for EBV-TK (specifically phosphorylated and converted into a cytotoxic agent by EBV-TK) |
| --- | --- |
| C=Cc1cn([C@H]2CC(O)[C@@H](CO)O2)c(=O)[nH]c1=O (stereo partly drawn) [5-vinyl-dU, β-D-2′-deoxy-5-vinyluridine] | selectivity for EBV-TK |
| O=c1[nH]c(=O)n([C@@H]2CO[C@H](CO)O2)cc1-c1ccco1 [(2S,4S)-5-(2-furanyl)-1-[2-(hydroxymethyl)-1,3-dioxolan-4-yl]uracil] | selectivity for EBV-TK |
| O=c1[nH]c(=O)n([C@@H]2CO[C@H](CO)O2)cc1-c1cccs1 [(2S,4S)-5-(2-thienyl)-1-[2-(hydroxymethyl)-1,3-dioxolan-4-yl]uracil] | selectivity for EBV-TK |
| O=c1[nH]c(=O)n([C@@H]2CO[C@H](CO)O2)cc1/C=C/CO [(2S,4S)-5-(3-hydroxypropenyl)-1-[2-(hydroxymethyl)-1,3-dioxolan-4-yl]uracil] | selectivity for EBV-TK |
| O=c1[nH]c(=O)n([C@@H]2CO[C@H](CO)O2)cc1-c1ccc(Br)o1 [(2S,4S)-5-(5-bromo-2-furanyl)-1-[2-(hydroxymethyl)-1,3-dioxolan-4-yl]uracil] | selectivity for EBV-TK |
| O=c1[nH]c(=O)n([C@@H]2CO[C@H](CO)O2)cc1-c1ccc(Br)s1 [(2S,4S)-5-(5-bromthien-2-yl)-1-[2-(hydroxymethyl)-1,3-dioxolan-4-yl]uracil] | selectivity for EBV-TK |
| O=c1[nH]c(=O)n([C@H]2CC(O)[C@@H](CO)O2)cc1CO (stereo partly drawn) [β-D-2′-deoxy-5-(hydroxymethyl)uridine] | selectivity for EBV-TK |
| O=C(O)/C=C/c1cn([C@H]2CC(O)[C@@H](CO)O2)c(=O)[nH]c1=O (stereo partly drawn) [β-D-5-E-(2-carboxyvinyl)-2′-deoxyuridine] | selectivity for EBV-TK |
| CCCCc1cn([C@H]2CC(O)[C@@H](CO)O2)c(=O)[nH]c1=O (stereo partly drawn) [β-D-5-butyl-2′-deoxyuridine] | selectivity for EBV-TK |
| O=c1[nH]c(=O)n([C@@H]2CC(O)[C@H](CO)O2)cc1I (stereo partly drawn) [β-L-2′-deoxy-5-iodouridine] | selectivity for EBV-TK |
| C=Cc1cn([C@@H]2CC(O)[C@H](CO)O2)c(=O)[nH]c1=O (stereo partly drawn) [β-L-2′-deoxy-5-vinyluridine] | selectivity for EBV-TK |
| C=Cc1cn([C@H]2O[C@@H](CO)C(O)C2O)c(=O)[nH]c1=O (stereo partly drawn) [β-L-5-vinyluridine] | selectivity for EBV-TK |
